Data taken from patent publication US20070049564A1 (Wyeth, priority 2005, published 2007).
Where two headings read alike, the source gives them in different places.

What was measured:
E. coli GC 4559 = test: MIC, broth microdilution; conditions: Escherichia coli, GC4559, E. coli GC 4559
E. faecalis GC 2267 = test: MIC, broth microdilution; conditions: Enterococcus faecalis, GC2267, E. faecalis GC 2267
P. aeruginosa GC 2214 = test: MIC, broth microdilution; conditions: Pseudomonas aeruginosa, GC2214, P. aeruginosa GC 2214
S. aureus GC 6467 = test: MIC, broth microdilution; conditions: Staphylococcus aureus, GC6467, S. aureus GC 6467
E. coli GC 6465 = test: MIC, broth microdilution; conditions: Escherichia coli, GC6465, E. coli GC 6465
S. aureus GC 6466 = test: MIC, broth microdilution; conditions: Staphylococcus aureus, GC6466, S. aureus GC 6466
E. coli GC 2234 = test: MIC, broth microdilution; conditions: Escherichia coli, GC2234, E. coli GC 2234
E. coli GC 2203 = test: MIC, broth microdilution; conditions: Escherichia coli, GC2203, E. coli GC 2203
E. coli GC 4560 = test: MIC, broth microdilution; conditions: Escherichia coli, GC4560, E. coli GC 4560
S. aureus GC 4536 = test: MIC, broth microdilution; conditions: Staphylococcus aureus, GC4536, S. aureus GC 4536
E. coli GC 2272 = test: MIC, broth microdilution; conditions: Escherichia coli, GC2272, E. coli GC 2272
S. pneumoniae+ GC 4465 = test: MIC, broth microdilution; conditions: Streptococcus pneumoniae, S. pneumoniae+ GC 4465
S. epidermidis GC 4935 = test: MIC, broth microdilution; conditions: Staphylococcus epidermidis, GC4935, S. epidermidis GC 4935
E. coli GC 2232 = test: MIC, broth microdilution; conditions: Escherichia coli, GC2232, E. coli GC 2232
E. faecalis GC 2242 = test: MIC, broth microdilution; conditions: Enterococcus faecalis, GC2242, E. faecalis GC 2242
Description: Antimicrobial susceptibility testing. The in vitro activities of the antibiotics are determined by the broth microdilution method as recommended by the National Committee for Clinical Laboratory Standards (NCCLS) (1). Mueller-Hinton II broth (MHBII)(BBL Cockeysville, Md.) is the medium employed in the testing procedures. Microtiter plates containing serial dilutions of each antimicrobial agent are inoculated with each organism to yield the appropriate density (10^5 CFU/ml) in a 100 μl final volume. The plates are incubated for 18-22 hours at 35° C. in ambient air.
Representative compounds were first incubated in mouse serum for an hour prior to the in vitro testing against a panel of selected gram-positive and gram-negative bacteria strains. All compounds were also pre-incubated in water for an hour prior to testing as control. Representative compounds of Formula I were incubated in human serum prior to MIC determination.

S. pneumoniae* GC 4465 = test: MIC, broth microdilution; conditions: Streptococcus pneumoniae, S. pneumoniae* GC 4465
S. aureus GC 1131 = test: MIC, broth microdilution; conditions: Staphylococcus aureus, GC1131, S. aureus GC 1131
Staph. aureus Smith = test: In vivo activity (oral, iv; ED50) against Staph. aureus Smith in mice
Description: Representative examples of compounds of Formula I were tested for the oral efficacy using S. aureus Smith in mice.

E. coli GC 2231 = test: MIC, broth microdilution; conditions: Escherichia coli, GC2231, E. coli GC 2231
S. aureus GC 2216 = test: MIC, broth microdilution; conditions: Staphylococcus aureus, GC2216, S. aureus GC 2216

CCCN(CC(=O)Nc1cc(N(C)C)c2c(c1O)C(=O)C1=C(O)[C@]3(O)C(=O)C(C(N)=O)=C(O)[C@@H](N(C)C)[C@@H]3C[C@@H]1C2)C(=O)OCc1ccccc1 [Example 14, benzyl 2-{[(5aR,6aS,7S,10aS)-9-(aminocarbonyl)-4,7-bis(dimethylamino)-1,8,10a,11-tetrahydroxy-10,12-dioxo-5,5a,6,6a,7,10,10a,12-octahydrotetracen-2-yl]amino}-2-oxoethyl(propyl)carbamate]
> 2 mg/kg: ED50 (Staph. aureus Smith; iv, read-out: ED50 Staph Smith SIV)
2 µg/mL: MIC (E. faecalis GC 2267; Mouse Serum pre-incubation) | MIC (S. aureus GC 6467; Mouse Serum pre-incubation) | MIC (S. aureus GC 6466; Mouse Serum pre-incubation) | MIC (S. aureus GC 4536; Mouse Serum pre-incubation) | MIC (S. aureus GC 4536; Water pre-incubation) | MIC (E. faecalis GC 2242; Mouse Serum pre-incubation) | MIC (S. pneumoniae* GC 4465; Mouse Serum pre-incubation) | MIC (S. aureus GC 1131; Water pre-incubation) | MIC (S. aureus GC 2216; Mouse Serum pre-incubation)
4 µg/mL: MIC (S. aureus GC 6467; Water pre-incubation) | MIC (E. coli GC 4560; Mouse Serum pre-incubation) | MIC (E. coli GC 4560; Water pre-incubation) | MIC (S. pneumoniae+ GC 4465; Mouse Serum pre-incubation) | MIC (S. pneumoniae+ GC 4465; Water pre-incubation) | MIC (S. pneumoniae* GC 4465; Water pre-incubation) | MIC (S. aureus GC 2216; Water pre-incubation)
32 µg/mL: MIC (E. coli GC 2203; Mouse Serum pre-incubation)
64 µg/mL: MIC (E. coli GC 2203; Water pre-incubation)
> 64 µg/mL: MIC (E. coli GC 4559; Mouse Serum pre-incubation) | MIC (E. coli GC 4559; Water pre-incubation) | MIC (P. aeruginosa GC 2214; Mouse Serum pre-incubation) | MIC (P. aeruginosa GC 2214; Water pre-incubation) | MIC (E. coli GC 6465; Mouse Serum pre-incubation) | MIC (E. coli GC 6465; Water pre-incubation) | MIC (E. coli GC 2234; Mouse Serum pre-incubation) | MIC (E. coli GC 2234; Water pre-incubation) | MIC (E. coli GC 2272; Mouse Serum pre-incubation) | MIC (E. coli GC 2272; Water pre-incubation) | MIC (E. coli GC 2232; Mouse Serum pre-incubation) | MIC (E. coli GC 2232; Water pre-incubation) | MIC (E. coli GC 2231; Mouse Serum pre-incubation) | MIC (E. coli GC 2231; Water pre-incubation)
1 µg/mL: MIC (S. aureus GC 1131; Mouse Serum pre-incubation)
8 µg/mL: MIC (E. faecalis GC 2267; Water pre-incubation) | MIC (S. aureus GC 6466; Water pre-incubation) | MIC (S. epidermidis GC 4935; Mouse Serum pre-incubation) | MIC (S. epidermidis GC 4935; Water pre-incubation) | MIC (E. faecalis GC 2242; Water pre-incubation)
> 32 mg/kg: ED50 (Staph. aureus Smith; Staphylococcus aureus, in Mus musculus, po, read-out: ED50 Staph Smith SOD)
